Values joined by “and” are separate entries in the source; they are usually repeats but may differ in a detail not shown here. Equal entries are not always repeated.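 96-well plates; 48 h exposure; 5 concentrations. Endpoints by linear interpolation between flanking doses. Not reached: highest tested concentration assigned. GI50: concentration for 50% inhibition of growth.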 Active and inactive are the calls of the source. Rule as the data show it: active = GI50 up to about 1.1 µM and inactive = higher.
Legend:
Test in all cases: NCI-60 cell line screen, 48 h
LOX IMVI = test system: LOX IMVI
NCI/ADR-RES = test system: NCI/ADR-RES
UACC-62 = test system: UACC-62
CAKI-1 = test system: CAKI-1
OVCAR-4 = test system: OVCAR-4
OVCAR-3 = test system: OVCAR-3
NCI-H23 = test system: NCI-H23
EKVX = test system: EKVX
HT-29 = test system: HT-29
SNB-19 = test system: SNB-19
NCI-H226 = test system: NCI-H226
786-0 = test system: 786-0
MDA-MB-435 = test system: MDA-MB-435
A498 = test system: A498
SK-OV-3 = test system: SK-OV-3
Malme-3M = test system: Malme-3M
HCC 2998 = test system: HCC 2998
U-251 = test system: U-251
HOP-62 = test system: HOP-62

| SMILES | GI50 (LOX IMVI) | GI50 (NCI/ADR-RES) | GI50 (UACC-62) | GI50 (CAKI-1) | GI50 (OVCAR-4) | GI50 (OVCAR-3) | GI50 (NCI-H23) | GI50 (EKVX) | GI50 (HT-29) | GI50 (SNB-19) | GI50 (NCI-H226) | GI50 (786-0) | GI50 (MDA-MB-435) | GI50 (A498) | GI50 (SK-OV-3) | GI50 (Malme-3M) | GI50 (HCC 2998) | GI50 (U-251) | GI50 (HOP-62) |
| --- | --- | --- | --- | --- | --- | --- | --- | --- | --- | --- | --- | --- | --- | --- | --- | --- | --- | --- | --- |
| COC(=O)C1OC(O[C@H]2CC[C@]3(C)[C@H]4CC=C5[C@@H]6CC(C)(C)CC[C@]6(C(=O)OC6OCC(O)C(O)C6OC6OC(C)C(OC7OCC(O)C(OC8OCC(O)C(O)C8O)C7O)C(OC7OCC(O)C(O)C7O)C6O)CC[C@@]5(C)[C@]4(C)CC[C@H]3C2(C)C)C(O)C(OC2OCC(O)C(O)C2O)C1O (stereo not given in full) | 7.85 µM (inactive) and 5.43 µM (inactive) | 5.11 µM (inactive) and 4.45 µM (inactive) | 3.08 µM (inactive) and 3.77 µM (inactive) | 5.24 µM (inactive) and 4.84 µM (inactive) | 6.61 µM (inactive) and 5.24 µM (inactive) | 9.25 µM (inactive) and 7.82 µM (inactive) | 4.52 µM (inactive) and 3.81 µM (inactive) | 3.74 µM (inactive) and 3.72 µM (inactive) | 3.1 µM (inactive) and 2.9 µM (inactive) | 7.01 µM (inactive) and 6.22 µM (inactive) | 2.9 µM (inactive) and 4.98 µM (inactive) | 5.01 µM (inactive) and 7.71 µM (inactive) | 2.13 µM (inactive) and 2.14 µM (inactive) | 1.94 µM (inactive) and 1.66 µM (inactive) | 12.8 µM (inactive) and 16.6 µM (inactive) | 3.61 µM (inactive) and 5.04 µM (inactive) | 1.78 µM (inactive) and 1.67 µM (inactive) | 7.41 µM (inactive) and 6.87 µM (inactive) | – |
| Cc1n[nH]c(=O)n1N1C(=O)c2ccccc2C1=O | > 100 µM (inactive) | > 100 µM (inactive) | > 100 µM (inactive) | > 100 µM (inactive) | > 100 µM (inactive) | > 100 µM (inactive) | > 100 µM (inactive) | > 100 µM (inactive) | > 100 µM (inactive) | > 100 µM (inactive) | > 100 µM (inactive) | > 100 µM (inactive) | > 100 µM (inactive) | > 100 µM (inactive) | – | > 100 µM (inactive) | > 100 µM (inactive) | > 100 µM (inactive) | > 100 µM (inactive) |
| O=[N+]([O-])c1ccc2c(c1)c(OCc1ccccc1)nn2Cc1ccccc1 | > 100 µM (inactive) | > 100 µM (inactive) | 80.4 µM (inactive) | > 100 µM (inactive) | – | > 100 µM (inactive) | > 100 µM (inactive) | – | > 100 µM (inactive) | > 100 µM (inactive) | > 100 µM (inactive) | 55 µM (inactive) | > 100 µM (inactive) | 33 µM (inactive) | > 100 µM (inactive) | 78.5 µM (inactive) | 58.9 µM (inactive) | – | 36.3 µM (inactive) |
| CC1OC(n2cnc3c(N)nc(Cl)nc32)C(C)(O)C1O (stereo not given) | > 25 µM (inactive) | > 25 µM (inactive) | > 25 µM (inactive) | > 25 µM (inactive) | > 25 µM (inactive) | > 25 µM (inactive) | > 25 µM (inactive) | > 25 µM (inactive) | > 25 µM (inactive) | > 25 µM (inactive) | > 25 µM (inactive) | > 25 µM (inactive) | > 25 µM (inactive) | > 25 µM (inactive) | > 25 µM (inactive) | > 25 µM (inactive) | > 25 µM (inactive) | – | > 25 µM (inactive) |
| CSc1c(C#N)c(=O)n(N)c2c1c(C)nn2-c1ccccc1 | 20.6 µM (inactive) | 24.3 µM (inactive) | 22 µM (inactive) | 19.9 µM (inactive) | 23.6 µM (inactive) | 25.1 µM (inactive) | 18.9 µM (inactive) | 26.7 µM (inactive) | 24.7 µM (inactive) | 28.4 µM (inactive) | 24.8 µM (inactive) | 40.5 µM (inactive) | 30.9 µM (inactive) | 21.4 µM (inactive) | 26.4 µM (inactive) | 22.4 µM (inactive) | 18.1 µM (inactive) | 28.1 µM (inactive) | – |
| CCCCCCCCCCCCCCCCC(=O)NCC(=O)NCC(=O)NC(Cc1ccccc1)C(=O)Oc1ccc([N+](=O)[O-])cc1 (stereo not given) | 20.4 µM (inactive) | 20.6 µM (inactive) | 20.7 µM (inactive) | 17.2 µM (inactive) | > 100 µM (inactive) | > 100 µM (inactive) | 73.1 µM (inactive) | 37.8 µM (inactive) | 29.3 µM (inactive) | > 10 µM (inactive) | 35 µM (inactive) | 27.5 µM (inactive) | 58.5 µM (inactive) | > 100 µM (inactive) | – | – | 17.7 µM (inactive) | 18.4 µM (inactive) | 22 µM (inactive) |
| Cc1ccc2c(O)c3c(cc2c1)C(=O)c1c2c(cc(O)c1C3=O)C1(C)OC(O2)C(O)C(N(C)C)C1O (stereo not given) | 1.11 µM (active) | 1.4 µM (inactive) | 1.07 µM (active) | 0.794 µM (active) | 1.56 µM (inactive) | 0.794 µM (active) | 1.26 µM (inactive) | 1.32 µM (inactive) | 0.495 µM (active) | 1.17 µM (inactive) | 1.15 µM (inactive) | 0.617 µM (active) | 1.39 µM (inactive) | 1.28 µM (inactive) | 1.09 µM (active) | – | 1.19 µM (inactive) | 1.16 µM (inactive) | 1.01 µM (active) |
| CCOC(=O)c1c(NC(=O)OC)c(C#N)c2n1CCCCC2 | > 100 µM (inactive) | > 100 µM (inactive) | > 100 µM (inactive) | > 100 µM (inactive) | > 100 µM (inactive) | – | > 100 µM (inactive) | > 100 µM (inactive) | > 100 µM (inactive) | > 100 µM (inactive) | > 100 µM (inactive) | > 100 µM (inactive) | > 100 µM (inactive) | > 100 µM (inactive) | > 100 µM (inactive) | – | > 100 µM (inactive) | > 100 µM (inactive) | > 100 µM (inactive) |
| COC(=O)[C@@]12CSC[C@]1(C(=O)OC)N[C@@H](c1ccccc1O)C2 | – | > 100 µM (inactive) | > 100 µM (inactive) | > 100 µM (inactive) | > 100 µM (inactive) | > 100 µM (inactive) | > 100 µM (inactive) | > 100 µM (inactive) | > 100 µM (inactive) | > 100 µM (inactive) | > 100 µM (inactive) | > 100 µM (inactive) | > 100 µM (inactive) | > 100 µM (inactive) | > 100 µM (inactive) | > 100 µM (inactive) | > 100 µM (inactive) | > 100 µM (inactive) | > 100 µM (inactive) |
| CC1(C)COP(=S)(c2ccccn2)O[C@@H]1c1ccccc1 (stereo not given in full) | > 100 µM (inactive) | 66.1 µM (inactive) | > 100 µM (inactive) | > 100 µM (inactive) | 70 µM (inactive) | – | 69.5 µM (inactive) | > 100 µM (inactive) | 81.8 µM (inactive) | > 100 µM (inactive) | 37.9 µM (inactive) | > 100 µM (inactive) | > 100 µM (inactive) | > 100 µM (inactive) | > 100 µM (inactive) | > 100 µM (inactive) | > 100 µM (inactive) | > 100 µM (inactive) | > 100 µM (inactive) |
| CN(N=O)C(=O)Nc1ccc(C(=O)O)cc1 | > 100 µM (inactive) | > 100 µM (inactive) | > 100 µM (inactive) | > 100 µM (inactive) | > 100 µM (inactive) | > 100 µM (inactive) | > 100 µM (inactive) | > 100 µM (inactive) | > 100 µM (inactive) | > 100 µM (inactive) | > 100 µM (inactive) | > 100 µM (inactive) | > 100 µM (inactive) | > 100 µM (inactive) | > 100 µM (inactive) | – | > 100 µM (inactive) | > 100 µM (inactive) | > 100 µM (inactive) |
| COc1ccc2c(c1)nc1n2C(c2c(F)cccc2F)SC1 (stereo not given) | 45.6 µM (inactive) | 38.2 µM (inactive) | 29.1 µM (inactive) | > 100 µM (inactive) | > 100 µM (inactive) | 62.8 µM (inactive) | 29 µM (inactive) | 36.1 µM (inactive) | 47.3 µM (inactive) | 21.4 µM (inactive) | 62.7 µM (inactive) | 48.2 µM (inactive) | 26.2 µM (inactive) | > 100 µM (inactive) | 40.8 µM (inactive) | – | 55.1 µM (inactive) | 55.7 µM (inactive) | 76.4 µM (inactive) |
| O=C1CCCC1C(O)(C(F)(F)F)C(F)(F)F (stereo not given) | > 100 µM (inactive) | > 100 µM (inactive) | > 100 µM (inactive) | > 100 µM (inactive) | > 100 µM (inactive) | > 100 µM (inactive) | > 100 µM (inactive) | > 100 µM (inactive) | > 100 µM (inactive) | > 100 µM (inactive) | > 100 µM (inactive) | > 100 µM (inactive) | > 100 µM (inactive) | > 100 µM (inactive) | – | > 100 µM (inactive) | > 100 µM (inactive) | > 100 µM (inactive) | > 100 µM (inactive) |
| CCCCC/C=C1/CC(CO)(COC(=O)CC(C(C)C)C(C)C)OC1=O (stereo not given) | – | 17.9 µM (inactive) | 13.7 µM (inactive) | 10.7 µM (inactive) | 26.5 µM (inactive) | 17.7 µM (inactive) | 16 µM (inactive) | 14.2 µM (inactive) | 19.5 µM (inactive) | 7.62 µM (inactive) | 12.1 µM (inactive) | 8.53 µM (inactive) | 6.27 µM (inactive) | 13 µM (inactive) | 18.9 µM (inactive) | 3.27 µM (inactive) | 16.7 µM (inactive) | 14.1 µM (inactive) | 7.74 µM (inactive) |
| COc1c(O)cc(C(=O)O[C@@H]2Cc3c(O)cc(O)cc3O[C@@H]2c2cc(O)c(O)c(O)c2)cc1O | 19.7 µM (inactive) | 32.9 µM (inactive) | 25.8 µM (inactive) | > 100 µM (inactive) | 20.2 µM (inactive) | 49.4 µM (inactive) | 31.5 µM (inactive) | 24.8 µM (inactive) | 18.2 µM (inactive) | 21.4 µM (inactive) | – | 18.5 µM (inactive) | 17.4 µM (inactive) | 94.6 µM (inactive) | > 100 µM (inactive) | > 100 µM (inactive) | 97.1 µM (inactive) | – | 30.7 µM (inactive) |

Source: ChEMBL document CHEMBL1201862, “PubChem BioAssay data set” (2004)
